Source: patent publication US20220119825A1, “SCALABLE PEPTIDE-GPCR INT[…] SYSTEMS” (THE TRUSTEES OF COLUMBIA UNIVERSITY IN THE CITY OF NEW YORK, priority 2019, published 2022)
Like-named read-outs stand apart in the source and are kept apart here. Ends that are not written are not given here. Peptide text beside a SMILES is read from it.

T1: Le.Ste2, Ste2-like mating GPCR of Lodderomyces elongisporous (Lodderomyces elongisporous)
T1 chain: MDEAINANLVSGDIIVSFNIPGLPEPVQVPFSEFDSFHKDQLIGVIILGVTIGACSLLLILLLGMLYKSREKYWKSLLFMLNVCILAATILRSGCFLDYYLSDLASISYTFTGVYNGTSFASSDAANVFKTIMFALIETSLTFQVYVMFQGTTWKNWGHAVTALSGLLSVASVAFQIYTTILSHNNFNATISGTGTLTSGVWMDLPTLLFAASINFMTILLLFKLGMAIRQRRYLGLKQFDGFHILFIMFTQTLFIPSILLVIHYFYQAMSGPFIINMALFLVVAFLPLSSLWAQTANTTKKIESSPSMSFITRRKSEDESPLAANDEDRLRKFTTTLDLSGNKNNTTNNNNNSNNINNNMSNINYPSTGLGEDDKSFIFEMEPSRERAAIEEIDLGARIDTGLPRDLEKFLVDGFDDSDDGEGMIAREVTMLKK

T2: Hj.Ste2, Ste2-like mating GPCR of Hypocrea jecorina (Hypocrea jecorina)
T2 chain: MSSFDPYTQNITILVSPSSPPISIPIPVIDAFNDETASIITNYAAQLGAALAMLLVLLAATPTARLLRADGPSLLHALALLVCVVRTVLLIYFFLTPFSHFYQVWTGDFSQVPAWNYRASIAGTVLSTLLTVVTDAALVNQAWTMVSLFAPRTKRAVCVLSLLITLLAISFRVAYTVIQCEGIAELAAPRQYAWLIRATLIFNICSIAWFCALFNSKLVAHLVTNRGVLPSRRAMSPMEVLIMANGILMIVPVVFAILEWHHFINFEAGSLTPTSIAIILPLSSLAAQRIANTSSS

T3: Bc.Ste2, Ste2-like mating GPCR of Botrytis cinerea (Botrytis cinerea)
T3 chain: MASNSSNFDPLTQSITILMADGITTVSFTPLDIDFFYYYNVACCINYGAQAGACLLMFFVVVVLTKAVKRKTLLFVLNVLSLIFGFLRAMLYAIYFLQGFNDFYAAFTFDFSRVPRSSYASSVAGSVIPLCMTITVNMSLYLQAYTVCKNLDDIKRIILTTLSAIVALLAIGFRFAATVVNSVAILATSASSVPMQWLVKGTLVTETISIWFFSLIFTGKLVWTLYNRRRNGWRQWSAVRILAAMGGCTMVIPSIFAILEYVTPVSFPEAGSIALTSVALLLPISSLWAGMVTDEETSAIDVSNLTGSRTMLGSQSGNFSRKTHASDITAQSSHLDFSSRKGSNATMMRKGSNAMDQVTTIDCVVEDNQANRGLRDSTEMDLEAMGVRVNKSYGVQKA

T4: Bb.Ste2, Ste2-like mating GPCR of Beauvaria bassiana (Beauvaria bassiana)
T4 chain: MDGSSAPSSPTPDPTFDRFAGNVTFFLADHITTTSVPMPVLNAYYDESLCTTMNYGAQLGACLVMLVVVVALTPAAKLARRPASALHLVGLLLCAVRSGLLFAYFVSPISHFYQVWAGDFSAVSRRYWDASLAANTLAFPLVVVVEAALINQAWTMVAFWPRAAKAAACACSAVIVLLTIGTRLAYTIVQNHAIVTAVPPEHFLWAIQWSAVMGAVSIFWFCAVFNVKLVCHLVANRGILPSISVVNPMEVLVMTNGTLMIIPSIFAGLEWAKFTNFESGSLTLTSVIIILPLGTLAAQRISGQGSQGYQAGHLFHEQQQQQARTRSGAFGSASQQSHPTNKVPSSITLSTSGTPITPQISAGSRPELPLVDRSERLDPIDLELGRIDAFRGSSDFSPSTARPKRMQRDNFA


Legend:
[1] = system: Ste2-like fungal mating GPCRs expressed in S. cerevisiae; assay: GPCR on-off activity and dose response assay (FUS1 promoter coRFP fluorescent reporter, strain JTy014, synthetic peptide ligand); assay type: cell-based, Ascomycete fungi (expressed in S. cerevisiae); set-up: EC50: unit: log10 M; conditions: for Hill Slope: Hill slope of 4-parameter fit; for Bttm: bottom of 4-parameter fit of the fluorescence dose response curve (basal activation); for Fold Change: fold-change activation from Top and Bttm of the fit; for Span: span of 4-parameter fit of the fluorescence dose response curve; for Top: top of 4-parameter fit of the fluorescence dose response curve (maximal activation)
Experimental: GPCR on-off activity and dose response assay. GPCR activity and response to increasing dosage of synthetic peptide ligand was measured in strain JTy014 using the genomically integrated FUS1-promoter controlled coRFP as a fluorescent reporter. JTy014 strains carrying the appropriate GPCR expression plasmid were assayed in 96-well microtiter plates using 200 μl total volume, cultured at 30° C. and 800 RPM. Cells were seeded at an A600 of 0.3 (Note: all herein reported cell density values are based on A600 measurements in 96-well plates of a 200 μl volume of cultures with a path length of ˜0.3 cm performed in an Infinite M200 plate reader from Tecan) in SC media lacking uracil (selective component). All measurements were performed in triplicates. RFP fluorescence (excitation: 588 nm, emission: 620 nm) and culture turbidity (A600) were measured after 8 hours using an Infinite M200 plate reader (Tecan). Since the optical density values were outside the linear range of the photodetector, all optical density values were first corrected using the following formula to give true optical density values: […]
where Ameas is the measured optical density, Asat is the saturation value of the photodetector and k is the true optical density at which the detector reaches half saturation of the measured optical density^36. Dose-response was measured at different concentrations (11 five-fold dilutions in H2O starting at 40 μM peptide, H2O was used as “no peptide” control) of the appropriate synthetic peptide ligand. All fluorescence values were normalized by the A600, and plotted against the log(10)-converted peptide concentrations. Data were fit to a four-parameter non-linear regression model using Prism (GraphPad) in order to extract GPCR-specific values for basal activation, maximal activation, EC50 and the Hill coefficient. Fold-activation was calculated for each GPCR as the maximum A600-normalized fluorescence of peptide-treated cells divided by the A600 normalized fluorescence value of water-treated cells.

[2] = biological target: T1, Le.Ste2, Ste2-like mating GPCR of …; assay: cell-based or functional assay
[3] = biological target: T2, Hj.Ste2, Ste2-like mating GPCR of …; assay: cell-based or functional assay
[4] = biological target: T3, Bc.Ste2, Ste2-like mating GPCR of …; assay: cell-based or functional assay
[5] = biological target: T4, Bb.Ste2, Ste2-like mating GPCR of …; assay: cell-based or functional assay
[6] = peptide/GPCR pair, synthetic cognate peptide, fluorescence read-out, 4-parameter fit of dose response curves (FIG. 6), values given as negative (log) numbers

Molecule | Hill Slope [1] | Bttm [1] | Fold Change [1] | EC50 [1, 6] | Span [1] | Top [1] | also measured
FSWNYRLKWQPIS [Cn] | 1.1 | 29.7 | 5.1 | −7.4 | 122.5 | 152.2 | –
S. cerevisiae Ste2: natural S. cerevisiae mating GPCR; value is its sensitivity to its cognate peptide ligand | – | – | – | – | – | – | EC50 ([1]; cognate synthetic peptide, fluorescence/A600 after 8 hours, four-parameter fit, read-out: EC50 (sensitivity of the GPCR for its cognate ligand)): 1.25 nM
H-WSWITLRPGQPIF-OH [Kl] | 0.8 | 37.2 | 6.0 | −7.3 | 185.9 | 223.1 | –
NCCCC[C@H](NC(=O)[C@H](Cc1c[nH]c2ccccc12)NC(=O)[C@H](Cc1c[nH]c2ccccc12)NC(=O)[C@H](CS)NC(=O)[C@@H](N)Cc1c[nH]c2ccccc12)C(=O)NCC(=O)N[C@@H](CCC(N)=O)C(=O)N1CCC[C@H]1C(=O)N[C@@H](CS)C(=O)N[C@@H](Cc1c[nH]c2ccccc12)C(=O)O [Fg] (H-WCWWKGQPCW-OH) | 1.3 | 29.2 | 8.0 | −7.1 | 203.0 | 232.2 | –
H-KFKFRLTRYGWFSPN-OH [Ct] | 1.2 | 32.0 | 5.2 | −8.2 | 134.6 | 166.7 | –
H-KPHWTTYGYYEPQ-OH [Cp] | 0.8 | 36.2 | 7.0 | −8.5 | 217.8 | 254.0 | –
H-KWGWLRFFPGEPFV-OH [Cau] | 0.8 | 50.6 | 6.7 | −8.1 | 286.3 | 336.9 | –
CC[C@H](C)[C@H](NC(=O)[C@H](Cc1c[nH]c2ccccc12)NC(=O)CN)C(=O)NCC(=O)N[C@@H](CCCNC(=N)N)C(=O)N[C@@H](CS)C(=O)NCC(=O)N[C@H](C(=O)N1CCC[C@H]1C(=O)NCC(=O)N[C@@H](CO)C(=O)N[C@@H](CO)C(=O)N[C@@H](CS)C(=O)O)C(C)C [Bm] (H-GWIGRCGVPGSSC-OH; N-terminus and C-terminus assumed) | 1.2 | 30.3 | 5.2 | −6.7 | 128.4 | 158.8 | –
H-NWHWLRLDPGQPLY-OH [Sca] | 0.7 | 24.3 | 6.4 | −8.1 | 131.1 | 155.4 | –
H-WHWVRLRKGQGLF-OH [Cg] | 2.4 | 30.5 | 7.0 | −5.9 | 183.0 | 213.6 | –
WMWTRYGRFSPV [Le peptide ligand #1 WMWTRYGRFSPV] | – | – | – | – | – | – | Bttm (FUS1p-RFP reporter) [2]: 22.9 fluorescence/A600 (not printed); EC50 (FUS1p-RFP reporter) [2]: -7.7 log10 M (not printed); Fold Change (FUS1p-RFP reporter) [2]: 18 fold; Span (FUS1p-RFP reporter) [2]: 390 fluorescence/A600 (not printed); Top (FUS1p-RFP reporter) [2]: 412 fluorescence/A600 (not printed)
WCYRIGEPCW (modifications not checked) [Hj peptide ligand #1 (Table 3: …)] | – | – | – | – | – | – | Bttm (FUS1p-RFP reporter) (fluorescence/A600 (not given)) [3]: 53; EC50 (FUS1p-RFP reporter) (log10 M (not given)) [3]: -7.8; Fold Change (FUS1p-RFP reporter) [3]: 8.1 fold; Span (FUS1p-RFP reporter) (fluorescence/A600 (not given)) [3]: 376; Top (FUS1p-RFP reporter) (fluorescence/A600 (not given)) [3]: 430
She. Ste2: genome-mined mating GPCR activated by near-cognate peptide with two additional N-terminal residues (protein) MKPAAGPASSPFDPFNQTFYLTGPDNTTVPVSVPQVDYIWHYIIGTSINYGSQIGACLLMLLVMLTLTSKSRFSRAATLINVASLLIGVIRCVLLAVYFTSSLTELYALFVGDYSQVRRSDLCVSAVATFFSLPQLVLIEAALFLQAYSMIKMWPSLWRAVVLAMSVVVAVCAIGFKFASVVMRMRSTLTLDDSLDFWLVEVDLAFTATTIFWFCFIYIIRLVIHMWEYRSILPPMGSVSAMEVLVMTNGALMLVPVIFAAIEINGLSSFESGSLVHTSVIVLLPLGSLIAQAMTRPDGYVQRTNTSGASGASGAHPGRNGSGHGGHGGAYSRAMTNTLNTLDTLDTVDSKTSIMHHHHHHHRNHSNGMSKTKANSGTWSHASDANSTNAMISGGIATQVRIQANQSTLGNTGMSGGSGAPNSHTRNNSLAAMEPVEKQLHDIDATPLSASDCRVWVDREVEVRRDMV | – | – | – | – | – | – | activation by alternative near-cognate peptide ligand candidates ([1]; 40 μM synthetic peptide ligand, 8 hours): can be activated
WCGRPGQPC [Bc peptide ligand #1 WCGRPGQPC] | – | – | – | – | – | – | Bttm (FUS1p-RFP reporter) [4]: 28.6 fluorescence/A600 (not printed); EC50 (FUS1p-RFP reporter) [4]: -8.1 log10 M (not printed); Fold Change (FUS1p-RFP reporter) [4]: 12.3 fold; Span (FUS1p-RFP reporter) [4]: 323 fluorescence/A600 (not printed); Top (FUS1p-RFP reporter) [4]: 352 fluorescence/A600 (not printed)
WCMRPGQPCW [Bb peptide ligand #1 WCMRPGQPCW] | – | – | – | – | – | – | Bttm (FUS1p-RFP reporter) [5]: 25.2 fluorescence/A600 (not printed); EC50 (FUS1p-RFP reporter) [5]: -8.5 log10 M (not printed); Fold Change (FUS1p-RFP reporter) [5]: 9.7 fold; Span (FUS1p-RFP reporter) [5]: 219 fluorescence/A600 (not printed); Top (FUS1p-RFP reporter) [5]: 244 fluorescence/A600 (not printed)
